Test results as given in patent US20230416239A1, “COMPOUNDS AND METHODS FOR TREATING A CYTOKINE-MEDIATED DISEASE” (CONSERVATOIRE NATIONAL DES ARTS ET MÉTIERS, priority 2020, published 2023).
pIC50: −log10 of the molar value.

Key:
[1] = target: TNFα (Homo sapiens, UniProt P01375); assay: Immunoassay binding test, TNFa; settings: compounds 100 to 0.78 μM; TNFα 10 ng/ml, receptor 100 ng/ml; read-out: BINDING TNF IC50
In short: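 ELISA-type binding test: receptor-coated plates blocked with 2% BSA, then cytokine (six-point dilution series) preincubated 2 h at 37 °C and bound overnight at 4 °C. Detection used biotinylated anti-cytokine antibody and avidin-HRP, read as OD at 450 nm. For IL-6, IL-6Ra was present at 200 ng/ml final.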

[2] = target: TNFa/TNFRI interaction (Homo sapiens, UniProt P01375); assay: TNFa/TNFRI interaction displacement test; assay type: binding; settings: for Displacement (%): compounds at 50 μM, human TNFRI 100 ng/ml; for Displacement EC50 TNFa in presence of compound: Difference: Compound EC50 minus SPD304 EC50;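 for Displacement EC50 TNFa in presence of compound: Difference: SPD304 reference at 20 µM final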
TNFa/TNFRI interaction, sequence (P01375 77-233 limits assumed): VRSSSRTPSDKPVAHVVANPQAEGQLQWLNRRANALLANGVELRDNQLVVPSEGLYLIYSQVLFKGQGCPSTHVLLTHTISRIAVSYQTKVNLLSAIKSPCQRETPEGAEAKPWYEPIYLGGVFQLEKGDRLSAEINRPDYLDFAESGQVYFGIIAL
In short: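 Plates coated overnight at 4° C with human TNFRI (100 ng/ml) and blocked with 2% BSA, then test mixtures were incubated overnight at 4° C. Bound cytokine detected with biotinylated anti-cytokine antibody (2 h, 37° C) and avidin-HRP, read as OD at 450 nm.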

[3] = target: T1, IL-4 (Homo sapiens, UniProt P05112); assay: Immunoassay binding test, IL-4; settings: for pIC50: IL-4 400 ng/ml, receptor 100 ng/ml, read-out: BINDING IL4 IC50
T1 sequence (P05112 25-153): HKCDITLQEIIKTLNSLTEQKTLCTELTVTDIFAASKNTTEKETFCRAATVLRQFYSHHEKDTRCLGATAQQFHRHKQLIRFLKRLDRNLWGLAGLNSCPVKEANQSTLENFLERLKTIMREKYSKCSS
In short: (§1)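 Detection used OD at 450 nm after biotinylated anti-cytokine antibody and avidin-HRP were applied to receptor-coated wells. Those wells had received, overnight at 4 °C, cytokine preincubated 2 h at 37 °C with compound at final 100 to 0.78 μM. IL-6 mixtures further contained IL-6Ra at 200 ng/ml final.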

[4] = target: IL-13 (Homo sapiens, UniProt P35225); assay: Immunoassay binding test, IL-13; settings: for pIC50: IL-13 400 ng/ml, receptor 100 ng/ml, read-out: BINDING IL13 IC50
IL-13, sequence (P35225 25-146, species assumed): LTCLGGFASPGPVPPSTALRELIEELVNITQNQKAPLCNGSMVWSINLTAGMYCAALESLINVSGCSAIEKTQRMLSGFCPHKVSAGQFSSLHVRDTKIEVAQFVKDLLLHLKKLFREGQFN
In short: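 Receptor-coated plates; compounds (100 to 0.78 μM final) preincubated 2 h at 37° C with fixed cytokine, then bound to receptor overnight at 4° C. Bound cytokine detected with biotinylated anti-cytokine antibody and avidin-HRP, OD 450 nm.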

[5] = target: IL-6 (Homo sapiens, UniProt P05231); assay: Immunoassay binding test, IL-6 (gp130 receptor, IL-6Ra present); settings: IL-6Ra 200 ng/ml
IL-6, sequence (P05231 30-212, species assumed): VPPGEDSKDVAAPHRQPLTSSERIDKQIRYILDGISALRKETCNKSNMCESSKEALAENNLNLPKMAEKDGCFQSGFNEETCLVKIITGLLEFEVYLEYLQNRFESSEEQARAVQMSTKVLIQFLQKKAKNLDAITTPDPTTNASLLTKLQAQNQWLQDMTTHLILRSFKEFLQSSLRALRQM
In short: as §1

TNFα, sequence (P01375 77-233 limits assumed, species assumed): as the sequence (P01375 77-233 limits assumed) above

| SMILES | pIC50 [1] | Displacement (%) [2] [%] | BINDING IL4 % Neutra at 100 μM [3] [%] | pIC50 [3] | BINDING IL13 % Neutra at 100 μM [4] [%] | pIC50 [4] | BINDING IL6 % Neutra at 100 μM [5] [%] | Displacement EC50 TNFa in presence of compound: Difference [2] [ng/mL] |
| --- | --- | --- | --- | --- | --- | --- | --- | --- |
| FC(F)(F)c1cccc(-n2cc(CN(CCCCNC3CCCCC3)Cc3ccncc3)c3ccccc32)c1 [Compound 22] | 4.77 | 120 | 98.4 | 5.39 | 95.2 | < 4.30 | -1.3 | – |
| CN(CCCCCN(Cc1ccc(F)nc1)Cc1cn(S(=O)(=O)c2ccccc2)c2ccccc12)C1CCCCC1 [Compound 58] | 5.17 | 126 | 92.5 | 5.68 | 89.1 | 4.98 | 1 | – |
| CN(CCCCCN(Cc1cccc(F)n1)Cc1cn(S(=O)(=O)c2ccccc2)c2ccccc12)C1CCCCC1 [Compound 54, N1-cyclohexyl-N5-((6-fluoropyridin-2-yl)methyl)-N1-methyl-N5-((1-(phenylsulfonyl)-1H-indol-3-yl)methyl)pentane-1,5-diamine] | 4.93 | 85 | 88.4 | 5.52 | 92.5 | 4.32 | 0 | – |
| CCCN(CCOCCN(Cc1cccnc1F)Cc1cn(S(=O)(=O)c2ccccc2)c2ccccc12)C1CCCCC1 [Compound 97, N-(2-(2-(((2-fluoropyridin-3-yl)methyl) ((1-(phenylsulfonyl)-1H-indol-3-yl)methyl)amino)ethoxy)ethyl)-N-propylcyclohexanamine] | 4.98 | 153 | 94.6 | 5.18 | 73.9 | < 4.30 | 0 | – |
| O=S(=O)(c1ccccc1)n1cc(CN(CCCNC2CCCCC2)Cc2cccnc2)c2ccccc21 [Compound 7] | 5.03 | 146 | 97.3 | 5.07 | 86.2 | < 4.30 | 3.3 | 7.8 |
| CN(C)S(=O)(=O)NCCCCN(Cc1cccnc1F)Cc1cn(S(=O)(=O)c2ccccc2)c2ccccc12 [Compound 78] | < 4.30 | 11 | 33.5 | < 4.30 | 0 | – | 0 | – |
| CN(CCCCCN(Cc1cccnc1)Cc1cn(S(=O)(=O)c2ccccc2)c2ccccc12)C1CCCCC1 [Compound 36] | 5.41 | 165 | 97.4 | 5.47 | 95 | 4.70 | −1.8 | – |
| O=S(=O)(c1ccccc1)n1cc(CN(CCOCCNC2CCCCC2)Cc2cccnc2F)c2ccccc21 [Compound 64, N-(2-(2-(((2-fluoropyridin-3-yl)methyl) ((1-(phenylsulfonyl)-1H-indol-3-yl)methyl)amino)ethoxy)ethyl)cyclohexanaminee] | 5.05 | 197 | 90.7 | 5.29 | 83.9 | 4.55 | 0 | – |
| Fc1cc(CN(Cc2cn(-c3cccc(C(F)(F)F)c3)c3ccccc23)CC2CCCN(C3CCCCC3)C2)ccn1 (stereo not shown) [Compound 20] | 4.71 | 88 | 99.5 | 5.32 | 97.5 | 5.21 | 18.5 | – |
| CN(CCCCN(Cc1cccnc1F)Cc1cn(S(=O)(=O)c2ccccc2)c2ccccc12)C1CCCC1 [Compound 72, N′-cyclopentyl-N^4-((2-fluoropyridin-3-yl)methyl)-N′-methyl-N^4-((1-(phenylsulfonyl)-1H-indol-3-yl)methyl)butane-1,4-diamine] | 5.01 | 208 | 89.8 | 5.09 | 92.1 | < 4.30 | 3 | – |
| CCCN(CCOCCN(Cc1cccnc1F)Cc1cn(S(=O)(=O)c2ccccc2)c2ccccc12)C1CCCC1 [Compound 106] | 4.94 | 132 | 84.1 | 4.84 | 32.1 | < 4.30 | 0 | – |
| CN(CCN(Cc1ccncc1)Cc1cn(-c2cccc(C(F)(F)F)c2)c2ccccc12)C1CCCCC1 [Compound 31] | 4.87 | 120 | 96 | 5.24 | 81 | < 4.30 | 1.7 | – |
| CN(CCCCCN(Cc1ccnc(F)c1)Cc1cn(S(=O)(=O)c2ccccc2)c2ccccc12)C1CCCCC1 [Compound 53, N1-cyclohexyl-N5-((2-fluoropyridin-4-yl)methyl)-N1-methyl-N5-((1-(phenylsulfonyl)-1H-indol-3-yl)methyl)pentane-1,5-diamine] | 5.08 | 115 | 92.7 | 5.28 | 91.6 | 4.82 | 0 | – |
| O=S(=O)(NCCCCN(Cc1cccnc1F)Cc1cn(S(=O)(=O)c2ccccc2)c2ccccc12)N1CCCCC1 [Compound 80] | < 4.30 | 0 | 29.1 | < 4.00 | 0 | – | 0 | – |
| O=S(=O)(c1ccccc1)n1cc(CN(CCCCNC2CCCCC2)Cc2cn(S(=O)(=O)c3ccccc3)c3ccccc23)c2ccccc21 [Compound 89] | 4.82 | 63 | 95.6 | 5.70 | 94.7 | 5.59 | 0 | – |
| FC(F)(F)c1cccc(-n2cc(CN(Cc3ccncc3)CC3CCCN(C4CCCCC4)C3)c3ccccc32)c1 (stereo not shown) [Compound 6] | 4.78 | 153 | 95.7 | 5.44 | 98.6 | 5.51 | 8.7 | 3.4 |
